From patent US8735622B2, “Histone demethylase inhibitors and methods for using the same” (The Regents of the University of Colorado, a body corporate, priority 2011, dated 2014)

How the values were obtained:
GST-JMJD2A(1-420) = biological target: T1, GST-JMJD2A(1-420) (Homo sapiens, UniProt O75164); experiment: Fluorescence polarization (FP) binding assay, JMJD2A; conditions: 1 nM fluorophore, 2 h at room temperature, read-out: dissociation constant (Kd) to GST-JMJD2A(1-420)
T1 construct: Recombinant protein preparation of GASC1(1-420), JMJD2A (1-420) and LSD1 (full-length); made in house; host or cells: Escherichia coli BL-21
T1 sequence (O75164 1-420): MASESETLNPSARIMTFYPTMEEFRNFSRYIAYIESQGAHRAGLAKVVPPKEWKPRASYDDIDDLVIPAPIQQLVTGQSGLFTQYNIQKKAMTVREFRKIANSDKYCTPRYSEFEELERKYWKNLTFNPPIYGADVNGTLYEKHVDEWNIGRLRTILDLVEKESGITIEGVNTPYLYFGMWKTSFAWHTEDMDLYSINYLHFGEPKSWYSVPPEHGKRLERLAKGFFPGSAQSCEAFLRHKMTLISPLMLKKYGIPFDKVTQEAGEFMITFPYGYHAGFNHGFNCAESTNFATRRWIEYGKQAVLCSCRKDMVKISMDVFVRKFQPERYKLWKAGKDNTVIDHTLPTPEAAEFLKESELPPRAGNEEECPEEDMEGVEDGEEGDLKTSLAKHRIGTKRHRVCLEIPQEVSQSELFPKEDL
Procedure: (§1) To measure fluorescence polarization, a Perkin Elmer EnVision 2102 Multilabel plate reader equipped with FP-FITC optic module was used. Corning half-area, black, flat-bottom, polystyrene, 96-well plates (cat. #: 3993) were used for all FP studies. Auto-adjustment of focal height and gain was performed in the well containing 80 μL of 1 nM fluorophore 20, the recommended concentration of fluorescein for this plate reader.
(§2) The dissociation constant (Kd) for fluorophore 20 to GST-JMJD2A(1-420) was measured (See FIG. 8) by titrating 20 (1 nM) with purified JMJD2A using protocols reported by Rossi et al. in Nat. Protoc., 2011, 6(3), 365-87. Fluorescence intensity values in parallel (i.e., I11) and perpendicular (i.e., I⊥) planes for each well were measured after 2 h of incubation at room temperature. For each experimental measurement, the protein background was subtracted, and the polarization (P) was calculated using these corrected values of I11 and I⊥ from the equation: P=(I11−G·I⊥)/(I11+G·I⊥), where the G factor is derived from the instrument auto-adjustment step. […] The Kd for 20 and JHDM1A was determined as 30±5 nM in a similar fashion.

JHDM1A = biological target: T2, JHDM1A (Homo sapiens, UniProt Q9Y2K7); experiment: Fluorescence polarization (FP) binding assay, JHDM1A; conditions: read-out: dissociation constant (Kd) to JHDM1A
T2 sequence (Q9Y2K7 1-1162): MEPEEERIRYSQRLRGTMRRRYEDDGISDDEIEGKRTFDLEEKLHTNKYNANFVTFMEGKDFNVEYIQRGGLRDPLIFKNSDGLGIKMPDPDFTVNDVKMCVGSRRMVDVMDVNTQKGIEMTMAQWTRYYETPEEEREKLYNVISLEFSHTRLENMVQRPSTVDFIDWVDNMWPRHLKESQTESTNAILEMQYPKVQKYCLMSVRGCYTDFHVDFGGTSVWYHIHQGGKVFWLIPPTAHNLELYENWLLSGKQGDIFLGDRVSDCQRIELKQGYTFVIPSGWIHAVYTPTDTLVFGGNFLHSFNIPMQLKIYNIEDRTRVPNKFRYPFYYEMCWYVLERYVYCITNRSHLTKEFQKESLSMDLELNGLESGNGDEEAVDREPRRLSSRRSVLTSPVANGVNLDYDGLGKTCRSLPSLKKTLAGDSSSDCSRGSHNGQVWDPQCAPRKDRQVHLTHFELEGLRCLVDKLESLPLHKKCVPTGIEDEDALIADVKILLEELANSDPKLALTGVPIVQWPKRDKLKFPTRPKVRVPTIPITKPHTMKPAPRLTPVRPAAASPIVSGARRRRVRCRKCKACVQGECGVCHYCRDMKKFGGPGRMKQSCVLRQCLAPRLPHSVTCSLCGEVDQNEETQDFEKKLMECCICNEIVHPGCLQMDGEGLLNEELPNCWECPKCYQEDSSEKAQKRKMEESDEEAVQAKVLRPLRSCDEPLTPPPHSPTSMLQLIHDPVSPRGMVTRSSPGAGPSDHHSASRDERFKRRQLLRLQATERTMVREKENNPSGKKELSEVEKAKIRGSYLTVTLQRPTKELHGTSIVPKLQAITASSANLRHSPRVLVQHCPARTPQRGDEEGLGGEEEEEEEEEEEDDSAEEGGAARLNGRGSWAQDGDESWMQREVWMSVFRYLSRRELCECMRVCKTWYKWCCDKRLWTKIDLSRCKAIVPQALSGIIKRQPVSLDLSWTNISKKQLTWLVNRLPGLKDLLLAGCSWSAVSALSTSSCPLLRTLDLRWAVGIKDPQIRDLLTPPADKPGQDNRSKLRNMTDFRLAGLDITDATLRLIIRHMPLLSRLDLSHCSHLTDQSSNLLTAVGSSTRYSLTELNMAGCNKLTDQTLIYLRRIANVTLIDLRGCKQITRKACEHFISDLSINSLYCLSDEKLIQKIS
Procedure: as §1, §2

[1] = tested on: H3K4me3 and H3K9me3 levels in KYSE150 cells; experiment: Quantitative immunostaining assay of H3K4me3 and H3K9me3 in KYSE150 cells; format: cell-based, human; conditions: 2.5 μM, 48 h
Procedure: To quantify the cellular activity of methylstat, a quantitative image-based assay was used. […] The cellular effects of methylstat were also cell type-specific.
For quantified immunostaining experiments, KYSE150 or MCF7 cells were seeded in a 96-well plate at 10,000 cells per well and incubated at 37° C. for 24 hours. The medium was replaced and methylstat in DMSO was added at the concentration as indicated. After incubation for another 48 hours, immunostaining procedure was performed as described above using anti-H3K9me3 or anti-H3K4me3 primary antibody. Fluorescent images of cells were acquired by a Nikon Eclipse 90i fluorescence microscope and analyzed using the Cell Scoring analysis module of MetaMorph 7.0 software.

[2] = tested on: prolyl hydroxylases (PHDs); experiment: Cellular HIF-1α level (prolyl hydroxylase specificity) in MCF7 cells; format: cell-based, human; conditions: 24 hours, methylstat up to 15 μM, DFO 150 μM, DMOG 1 and 2 mM
Description: To assess the specificity of methylstat in vivo, another iron(II)- and α-ketoglutarate-dependent dioxygenases, prolyl hydroxylases (PHDs), was examined. PHDs have been reported to regulate normoxic inactivation of hypoxia-inducible factors (HIFs) by hydroxylating specific prolyl residues of HIFs. […] DMOG and DFO have been used to mimic hypoxia conditions by inhibiting PHDs in vivo. […] Similar results were also observed in HeLa cells (see FIG. 7).
Total lysates of cells were generated from the cells lysed in CelLytic M Cell Lysis (Sigma) with protease inhibitor cocktail (Sigma), mixed with 2×LSB buffer (100 mM Tris-HCl pH 6.8, 200 mM DTT, 4% SDS, 20% glycerol and 0.2% bromophenol blue) and boiled for 5 min before SDS-PAGE. BCA assay (Thermo) was applied for protein qualification.

Molecule	cellular activity in H3K4me3- and H3K9me3-immunostaining assays relative to methylstat [1]	cellular HIF-1α levels / prolyl hydroxylase inhibition [2]	also measured
NCc1ccc(CN(CCCCN(O)C(=O)/C=C/C(=O)O)C(=S)Nc2ccc(C3=C4C=CC(=O)C=C4Cc4cc(O)ccc43)c(C(=O)O)c2)cc1 [Compound 20]			Kd (GST-JMJD2A(1-420)): 175 ± 42 nM; Kd (JHDM1A): 30 ± 5 nM
COC(=O)C(=O)N(O)CCCCNCc1ccc(COC(=O)Nc2cccc3ccccc23)cc1 [Compound 23a]	significantly decreased cellular activity		
COC(=O)/C=C/C(=O)N(O)CCCC[N+](C)(C)Cc1ccc(COC(=O)Nc2cccc3ccccc23)cc1.[I-] [Compound 23f]	reduced its activity		
COC(=O)CNC(=O)C(=O)OC [DMOG, dimethyl oxalylglycine, reference compound]		significantly increased cellular levels of HIF-1α	
deferoxamine mesylate salt [DFO, reference compound]		significantly increased cellular levels of HIF-1α	
